According to PMC3169519 (PLoS Computational Biology, 2011):
Like-named read-outs stand apart in the source and are kept apart here.

Columns and labels:
TOP1 = target: T1, TOP1 (Homo sapiens, UniProt P11387); experiment: DNA-bound TOP1 (Topo I Link Kit) after CPT11 exposure of synchronized cells; format: cell-based; details: synchronized Caco-2 cells
T1 construct: endogenous in cells; host or cells: Caco-2 (ATCC)
T1 sequence (P11387 1-765): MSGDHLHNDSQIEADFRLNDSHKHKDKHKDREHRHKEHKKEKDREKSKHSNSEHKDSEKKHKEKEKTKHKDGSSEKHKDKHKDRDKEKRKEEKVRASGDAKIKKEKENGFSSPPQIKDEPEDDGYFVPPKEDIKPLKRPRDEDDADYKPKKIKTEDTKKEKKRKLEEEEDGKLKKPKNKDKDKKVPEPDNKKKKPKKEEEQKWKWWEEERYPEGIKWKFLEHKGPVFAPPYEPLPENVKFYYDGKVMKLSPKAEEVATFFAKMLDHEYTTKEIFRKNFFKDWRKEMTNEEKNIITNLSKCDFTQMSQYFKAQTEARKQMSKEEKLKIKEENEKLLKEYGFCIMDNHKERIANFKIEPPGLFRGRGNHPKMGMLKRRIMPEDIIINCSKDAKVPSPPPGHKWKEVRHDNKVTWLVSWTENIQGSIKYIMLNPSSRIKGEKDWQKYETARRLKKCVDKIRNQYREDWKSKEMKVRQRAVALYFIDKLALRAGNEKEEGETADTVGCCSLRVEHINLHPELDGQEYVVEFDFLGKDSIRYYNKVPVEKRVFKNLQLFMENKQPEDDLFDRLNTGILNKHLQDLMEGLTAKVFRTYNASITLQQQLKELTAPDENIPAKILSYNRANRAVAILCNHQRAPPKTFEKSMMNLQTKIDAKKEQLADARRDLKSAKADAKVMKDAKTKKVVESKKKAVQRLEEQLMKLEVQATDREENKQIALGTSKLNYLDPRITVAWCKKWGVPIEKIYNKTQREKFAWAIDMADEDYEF
Protocol: The Caco-2 cell line was obtained from the American Type Culture Collection (Rockville, MD). Cells were grown in Dulbecco's modified Eagle's: Ham F12 medium (1∶1) supplemented with penicillin ([…]), streptomycin ( [drawing 195] ), glutamine (2 mM) (Fischer Scientific, Paris, France) and 10% of Fetal Bovine Serum (FBS) (Dutscher, Paris, France). They were maintained in a humidified atmosphere containing 5% [drawing 196] at [drawing 197] . Experiments were performed four days after confluence. CPT11 was purchased from Pfizer (Paris, France). For transport inhibition studies, non-synchronized cells were pre-incubated with verapamil, a non specific inhibitor of ABC transporters ( [drawing 198] for 24 h; Sigma Aldrich, Paris, France). […] Cell synchronization was performed by a serum shock which consisted in a 2-hour exposure to serum rich medium (DMEM:F12 containing 50% FBS). The beginning of the serum shock defined Circadian Time 0 (CT 0).
The Topo I Link Kit (TopoGen, Port Orange, FL) was used to quantify the amount of TOP1 linked on DNA [56]. […] Fractions of [drawing 208] were removed from the top of the gradient, and an aliquot of each fraction ( [drawing 209] ) was diluted (1/5) and quantified at 260 nm with spectrophotometer (Eppendorf, Paris, France). […] Chemoluminescence signals were detected with Las4000 camera and quantified with ImageJ software. […]

CESs = details: cited from earlier work
[1] = cancer patients, dumbbell delivery scheme over 6h; cited from earlier work

DNA-bound TOP1 protein amount, % of TOP1 total protein quantity (TOP1; 30 min CPT11 exposure at CT14): 47% | DNA-bound TOP1 protein amount, % of TOP1 total protein quantity (TOP1; 30 min CPT11 exposure at CT28): 35.5%
Compound: CCc1c2c(nc3ccc(OC(=O)N4CCC(N5CCCCC5)CC4)cc13)-c1cc3c(c(=O)n1C2)COC(=O)[C@]3(O)CC [CPT11, irinotecan]
Kces (CESs; [CES]=1.42 µM): 53 µM | Kces (CESs; [CES]=2.03 µM): 53 µM | Vces (CESs; [CES]=2.03 µM): 0.714 µM/h | time CPT11 circulating [1]: approximately 12 h
